Measurements published in patent US5192784A, “Etanidazole injectable solution” (Du Pont Merck Pharmaceutical Company, priority 1992, dated 1993).

Assay: Chemical stability (hydrolysis kinetics) of etanidazole in buffered solutions at 80° C.
Format: physicochemical
Settings: for kobs, observed first-order rate constant: mean, n = 3
Protocol: The k values shown in Tables 1-5 and FIG. 1 should be multipled by a factor of 2.303 to provide the actual k value.
The chemical stability of etanidazole was evaluated in solutions of varying composition stored at 80° C. Etanidazole was placed into suitable containers and sufficient buffer was added to result in a 1 mg/ml solution. A constant ionic strength of 0.3 was maintained with potassium chloride. All solutions were prepared in triplicate. The solution was divided into 2 ml sealed glass vials and was placed into cardboard storage boxes to protect the compound from light. At appropriate intervals, samples were removed from the stability chamber and cooled to room temperature. An aliquot of the sample was diluted with mobile phase containing internal standard prior to HPLC analysis. For those pH conditions where degradation was rapid, the sample aliquot was immediately quenched to neutral pH and room temperature.
Data were analyzed using methods as described by Martin et al. in "Physical Pharmacy", 3rd ed, pp 352-395 (1983).
In the intermediate pH range where buffers were employed, the observed first-order rate constant can be defined at any given pH with the following equation;
[…] [H+]+ko +kOH- [OH-]+kB [BT ]
where kH+ and kOH- are the second-order specific acid and specifiic base catalysis rate constants, respectively kB is the second-order rate constant for the catalysis due to the buffer, and [BT ] is the total buffer concentration. Plotting kobs vs [BT ] yields a slope of kB and a y-intercept of kH+ [H+]+ko +kOH- [OH-], the observed rate constant extrapolated to zero buffer concentration (k'). The observed rate constant extrapolated to zero buffer concentration (k') are used to generate the pH-rate profile (FIG. 1).
The buffer systems permit pH control through the equilibrium of their acidic and basic forms. Utilizing these equilibria, the rate constants for the individual buffer species may be calculated. In the acetate buffers, the second-order rate constant for the catalysis due to the acetate buffer is defined as follows;
[…]
where ^f CH3 COOH is the fraction of the acetate buffer in the neutral form, ^k (CH3 COOH) is the second-order rate constant for the catalysis due to the acetic acid species, ^f CH3 COO- is the fraction of the acetate buffer in the ionized form and ^k CH3 COO- is the second-order rate constant for the catalysis due to the acetate anion. Employing the same buffer for various pH conditions permits the determination of the second-order rate constants for the various species (Table 3).

- kobs, observed first-order rate constant (0.01M HCl pH 2.2, 80° C.): 0.00824 day⁻¹
- kobs, observed first-order rate constant (0.013M Citrate pH 6.5, 80° C.): 0.0106 day⁻¹
- kobs, observed first-order rate constant (0.02M Citrate pH 5.5, 80° C.): 0.00843 day⁻¹
- kobs, observed first-order rate constant (0.025M Phosphate pH 6.5, 80° C.): 0.0195 day⁻¹
- kobs, observed first-order rate constant (0.03M Citrate pH 6.5, 80° C.): 0.0119 day⁻¹
- kobs, observed first-order rate constant (0.05M Acetate pH 4.0, 80° C.): 0.00119 day⁻¹
- kobs, observed first-order rate constant (0.05M Acetate pH 5.0, 80° C.): 0.00386 day⁻¹
- kobs, observed first-order rate constant (0.05M Borate pH 9.2, 80° C.): 0.0333 day⁻¹
- kobs, observed first-order rate constant (0.05M Citrate pH 3.0, 80° C.): 0.00575 day⁻¹
- kobs, observed first-order rate constant (0.05M Citrate pH 4.5, 80° C.): 0.00336 day⁻¹
- kobs, observed first-order rate constant (0.05M Citrate pH 5.5, 80° C.): 0.00957 day⁻¹
- kobs, observed first-order rate constant (0.05M Phosphate pH 6.5, 80° C.): 0.0135 day⁻¹
- kobs, observed first-order rate constant (0.05M Phosphate pH 7.4, 80° C.): 0.0168 day⁻¹
- kobs, observed first-order rate constant (0.065M Citrate pH 6.5, 80° C.): 0.0132 day⁻¹
- kobs, observed first-order rate constant (0.1M Acetate pH 4.0, 80° C.): 0.00185 day⁻¹
- kobs, observed first-order rate constant (0.1M Acetate pH 5.0, 80° C.): 0.00516 day⁻¹
- kobs, observed first-order rate constant (0.1M Borate pH 9.2, 80° C.): 0.0382 day⁻¹
- kobs, observed first-order rate constant (0.1M Citrate pH 3.0, 80° C.): 0.00882 day⁻¹
- kobs, observed first-order rate constant (0.1M Citrate pH 4.5, 80° C.): 0.00587 day⁻¹
- kobs, observed first-order rate constant (0.1M Citrate pH 5.5, 80° C.): 0.0101 day⁻¹
- kobs, observed first-order rate constant (0.1M HCl pH 1.0, 80° C.): 0.0961 day⁻¹
- kobs, observed first-order rate constant (0.1M NaOH pH 12.6, 80° C.): 13.1 day⁻¹
- kobs, observed first-order rate constant (0.1M Phosphate pH 6.5, 80° C.): 0.0149 day⁻¹
- kobs, observed first-order rate constant (0.1M Phosphate pH 7.4, 80° C.): 0.0187 day⁻¹
- kobs, observed first-order rate constant (0.135M Phosphate pH 7.4, 80° C.): 0.0183 day⁻¹
- kobs, observed first-order rate constant (0.18M Citrate pH 4.5, 80° C.): 0.00789 day⁻¹
- kobs, observed first-order rate constant (0.25M Acetate pH 4.0, 80° C.): 0.00342 day⁻¹
- kobs, observed first-order rate constant (0.25M Acetate pH 5.0, 80° C.): 0.00801 day⁻¹
- kobs, observed first-order rate constant (0.25M Borate pH 9.2, 80° C.): 0.0596 day⁻¹
- kobs, observed first-order rate constant (0.25M Citrate pH 3.0, 80° C.): 0.0197 day⁻¹
- kobs, observed first-order rate constant (0.3M HCl pH 0.62, 80° C.): 0.263 day⁻¹
- kobs, observed first-order rate constant (0.3M NaOH pH 13.1, 80° C.): 52.9 day⁻¹
- k', first-order rate constant extrapolated to zero buffer concentration (Acetate pH 4.0, 80° C.): 0.000688 day⁻¹
- kB, second-order rate constant for the buffer catalysis (Acetate pH 4.0, 80° C.): 1.27e-07 M⁻¹ s⁻¹
- k', first-order rate constant extrapolated to zero buffer concentration (Acetate pH 5.0, 80° C.): 0.00296 day⁻¹
- kB, second-order rate constant for the buffer catalysis (Acetate pH 5.0, 80° C.): 2.35e-07 M⁻¹ s⁻¹
- kB, second-order rate constant for the buffer species (Acetic acid, 80° C.): 9.41e-08 M⁻¹ s⁻¹
- kB, second-order rate constant for the buffer species (Acetic^-1, 80° C.): 3.17e-07 M⁻¹ s⁻¹
- k', first-order rate constant extrapolated to zero buffer concentration (Borate pH 9.2, 80° C.): 0.0258 day⁻¹
- kB, second-order rate constant for the buffer catalysis (Borate pH 9.2, 80° C.): 1.55e-06 M⁻¹ s⁻¹
- k', first-order rate constant extrapolated to zero buffer concentration (Citrate pH 3.0, 80° C.): 0.00204 day⁻¹
- kB, second-order rate constant for the buffer catalysis (Citrate pH 3.0, 80° C.): 8.15e-07 M⁻¹ s⁻¹
- k', first-order rate constant extrapolated to zero buffer concentration (Citrate pH 4.5, 80° C.): 0.00197 day⁻¹
- kB, second-order rate constant for the buffer catalysis (Citrate pH 4.5, 80° C.): 3.94e-07 M⁻¹ s⁻¹
- k', first-order rate constant extrapolated to zero buffer concentration (Citrate pH 5.5, 80° C.): 0.00824 day⁻¹
- kB, second-order rate constant for the buffer catalysis (Citrate pH 5.5, 80° C.): 2.29e-07 M⁻¹ s⁻¹
- k', first-order rate constant extrapolated to zero buffer concentration (Citrate pH 6.5, 80° C.): 0.0102 day⁻¹
- kB, second-order rate constant for the buffer catalysis (Citrate pH 6.5, 80° C.): 5.57e-07 M⁻¹ s⁻¹
- kB, second-order rate constant for the buffer species (Citrate^-3, 80° C.): 9.4e-07 M⁻¹ s⁻¹
- kB, second-order rate constant for the buffer species (Citric Acid, 80° C.): 1.03e-06 M⁻¹ s⁻¹
- kB, second-order rate constant for the buffer species (Dihydrogen citrate^-1, 80° C.): 5.3e-07 M⁻¹ s⁻¹
- kB, second-order rate constant for the buffer species (Dihydrogen phosphate^-1, 80° C.): 3.95e-07 M⁻¹ s⁻¹
- kB, second-order rate constant for the buffer species (Hydrogen citrate^-2, 80° C.): 8.23e-08 M⁻¹ s⁻¹
- kB, second-order rate constant for the buffer species (Hydrogen phosphate^-2, 80° C.): 1.17e-07 M⁻¹ s⁻¹
- k', first-order rate constant extrapolated to zero buffer concentration (Phosphate pH 6.5, 80° C.): 0.0119 day⁻¹
- kB, second-order rate constant for the buffer catalysis (Phosphate pH 6.5, 80° C.): 3.5e-07 M⁻¹ s⁻¹
- k', first-order rate constant extrapolated to zero buffer concentration (Phosphate pH 7.4, 80° C.): 0.0161 day⁻¹
- kB, second-order rate constant for the buffer catalysis (Phosphate pH 7.4, 80° C.): 2.2e-07 M⁻¹ s⁻¹
- pH at which overall rate constant was minimum (hydrolysis, 80° C.): approximately 4
- kinetics of hydrolysis (pH range of 0.6 to 12.6, 80° C.): apparent first-order kinetics
- effect of concentration and ionic strength on stability (summary, 80° C.): negligible effects on the stability
SMILES: O=C(Cn1ccnc1[N+](=O)[O-])NCCO [Etanidazole]
- primary route of degradation (analysis of degradation product, 80° C.): through the hydrolysis of the amide linkage
- buffer catalysis of degradation (citrate and acetate at the pH minimum, 80° C.): Citrate and acetate were both catalytic at the pH minimum, with citrate being a stronger catalyst than acetate
